Converted amounts (≈) assume the structure as drawn.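 Five concentrations, 48 hours, 96-well plates. Abbreviation: GI50, concentration required for 50% inhibition of growth. The concentration for full growth arrest is given as TGI.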

Among the test systems are U251 CNS; CCRF-CEM leukemia; SN12C renal; HT29 colon; HOP-92 NSCLC; EKVX NSCLC; SK-OV-3 ovarian; LOX IMVI melanoma; NCI-H23 lung; SF-268 CNS.
What all share (experiment): NCI anticancer screen, dose series, 48 h

In the case of `CCn1cnc2c(NC(C)=O)ncnc21`, the TGI in the experiment on U251 CNS, with CCRF-CEM leukemia, with SN12C renal, in the experiment on HT29 colon, in the experiment with HOP-92 NSCLC and with EKVX NSCLC was more than 100 µM throughout. Also, the TGI in the experiment on SK-OV-3 ovarian, with LOX IMVI melanoma and in the experiment on NCI-H23 lung was more than 100 µM in each case.

Regarding `CC[C@]12C=CCN3CCC4(c5cc([C@@]6(C(=O)OC)CC7CN(CCc8c6[nH]c6ccccc86)C[C@@H]6CCC[C@H]76)c(OC)cc5N(C)C4[C@](O)(C(=O)OC)C1OC(C)=O)C32` (stereo partly specified), the TGI in the experiment on SF-268 CNS is 1.6 µM; with U251 CNS it was more than 5.19 µM; in the experiment with CCRF-CEM leukemia it was more than 10 µM; in the experiment with SN12C renal, more than 10 µM; with HT29 colon, more than 3.12 µM; in the experiment on HOP-92 NSCLC, more than 10 µM. The TGI in the experiment on EKVX NSCLC is more than 3.86 µM; in the experiment with SK-OV-3 ovarian, more than 2.54 µM; in the experiment with LOX IMVI melanoma it was more than 10 µM; with NCI-H23 lung it was 1.42 µM.

Turning to `Cc1cccc(NC(=S)N/N=C(/c2ccccc2)c2ccccn2)c1`, the TGI was 12.6 µM with SF-268 CNS; 12.5 µM with U251 CNS; 1.48 µM with CCRF-CEM leukemia; 12.4 µM in the experiment with SN12C renal; 17.4 µM with HT29 colon; 15.7 µM in the experiment with HOP-92 NSCLC. Further, the TGI worked out at 4.08 µM in the experiment with EKVX NSCLC, 14.1 µM in the experiment on SK-OV-3 ovarian, 11.5 µM in the experiment with LOX IMVI melanoma and 13.9 µM in the experiment with NCI-H23 lung.

With `c1ccc2c(c1)C(=Nc1ccc(N=C3c4ccccc4-c4ccccc43)cc1)c1ccccc1-2`, the TGI in the experiment with SF-268 CNS, in the experiment with U251 CNS, in the experiment with CCRF-CEM leukemia, in the experiment on SN12C renal, with HT29 colon and in the experiment with HOP-92 NSCLC was more than 100 µM in each case. In addition, the TGI with EKVX NSCLC, in the experiment with SK-OV-3 ovarian, in the experiment with LOX IMVI melanoma and in the experiment with NCI-H23 lung was more than 100 µM throughout.

With `NC(N)=Nc1nc2ccccc2[nH]1`, the GI50 is 128 µg/mL (≈ 732 µM) in the experiment on SF-268 CNS; 55.3 µg/mL (≈ 316 µM) in the experiment with U251 CNS; 4.49 µg/mL (≈ 25.6 µM) in the experiment on CCRF-CEM leukemia; 72.9 µg/mL (≈ 416 µM) in the experiment on SN12C renal; 51.3 µg/mL (≈ 293 µM) in the experiment on HT29 colon; 103 µg/mL (≈ 588 µM) with HOP-92 NSCLC. The GI50 is 57.4 µg/mL (≈ 328 µM) with EKVX NSCLC, 150 µg/mL (≈ 856 µM) in the experiment on SK-OV-3 ovarian, 43.8 µg/mL (≈ 250 µM) in the experiment on LOX IMVI melanoma and 121 µg/mL (≈ 691 µM) in the experiment with NCI-H23 lung. Moreover, the TGI in the experiment on SF-268 CNS was more than 150 µg/mL; in the experiment on U251 CNS it was more than 150 µg/mL; in the experiment on CCRF-CEM leukemia it was 111 µg/mL; with SN12C renal, more than 150 µg/mL; in the experiment on HT29 colon, more than 150 µg/mL; with HOP-92 NSCLC, more than 150 µg/mL. The TGI with EKVX NSCLC, in the experiment with SK-OV-3 ovarian, in the experiment on LOX IMVI melanoma and in the experiment on NCI-H23 lung was more than 150 µg/mL in each case.

As for `[N-]=[N+]=NC1=C(c2ccccc2)C(=O)c2cccc3cccc1c23`, the TGI with SF-268 CNS is more than 100 µM; in the experiment on U251 CNS, more than 100 µM; in the experiment on CCRF-CEM leukemia, more than 100 µM; with SN12C renal, more than 100 µM; with HT29 colon, 27 µM; in the experiment with HOP-92 NSCLC, 91.1 µM. The TGI with SK-OV-3 ovarian, with LOX IMVI melanoma and with NCI-H23 lung was more than 100 µM each time.

For `COc1ccc([C@@H]2CC(=O)NCCCCNCCCN2)cc1`, the TGI with SF-268 CNS, with U251 CNS, in the experiment with CCRF-CEM leukemia, with SN12C renal, in the experiment with HT29 colon and with HOP-92 NSCLC was more than 100 µM in each case. For the same compound, the TGI in the experiment on EKVX NSCLC, with SK-OV-3 ovarian and with NCI-H23 lung was more than 100 µM in each case.

For `COC(=O)C1CCC(=O)N1C(c1ccc2c(c1)OCO2)c1ccc2c(c1)OCO2` (stereo unspecified), the TGI in the experiment on SF-268 CNS, with U251 CNS, in the experiment on CCRF-CEM leukemia, in the experiment with SN12C renal, with HT29 colon and with HOP-92 NSCLC was more than 100 µM in each case. For the same compound, the TGI in the experiment on EKVX NSCLC, with SK-OV-3 ovarian, in the experiment with LOX IMVI melanoma and in the experiment with NCI-H23 lung was more than 100 µM in each case.

On to `CCOC(=O)/C=C/c1ccccn1`, for which the TGI in the experiment on SF-268 CNS, in the experiment on U251 CNS, in the experiment on CCRF-CEM leukemia, in the experiment on SN12C renal, with HT29 colon and in the experiment with HOP-92 NSCLC was more than 100 µM in each case. Also, the TGI with EKVX NSCLC, with SK-OV-3 ovarian, in the experiment on LOX IMVI melanoma and in the experiment on NCI-H23 lung was more than 100 µM each time.

On to `CCNc1ncnc2n[nH]nc12`, for which the TGI in the experiment with U251 CNS, in the experiment with CCRF-CEM leukemia, in the experiment on SN12C renal, in the experiment on HT29 colon, with HOP-92 NSCLC and in the experiment with EKVX NSCLC was more than 100 µM in each case. Moreover, the TGI in the experiment on SK-OV-3 ovarian, in the experiment with LOX IMVI melanoma and in the experiment with NCI-H23 lung was more than 100 µM each time.

With `CC(=O)NC(CCCCNC(=O)N(C)N=O)C(=O)NCc1ccccc1` (stereo unspecified), the TGI in the experiment on SF-268 CNS, with U251 CNS, with CCRF-CEM leukemia, in the experiment with SN12C renal, with HT29 colon and in the experiment with HOP-92 NSCLC was more than 100 µM in each case. In addition, the TGI with EKVX NSCLC, with SK-OV-3 ovarian, in the experiment with LOX IMVI melanoma and in the experiment on NCI-H23 lung was more than 100 µM each time.

As for `CCCCCCCC/C=C/CCCCCCCC1CC(O)C(=O)O1` (stereo unspecified), the TGI in the experiment on SF-268 CNS is more than 100 µM; in the experiment with U251 CNS, more than 100 µM; with CCRF-CEM leukemia, more than 100 µM; in the experiment with HT29 colon, more than 100 µM; with HOP-92 NSCLC it was 90.9 µM; in the experiment on EKVX NSCLC, more than 100 µM. Also, the TGI in the experiment on SK-OV-3 ovarian, with LOX IMVI melanoma and in the experiment on NCI-H23 lung was more than 100 µM in each case.

Take `N#Cc1c2nc3ccccc3nc2n2ccc3ccccc3c12`: the TGI in the experiment with SF-268 CNS, with U251 CNS, in the experiment on CCRF-CEM leukemia, with SN12C renal, in the experiment with HT29 colon and with HOP-92 NSCLC was more than 100 µM throughout. Moreover, the TGI in the experiment on EKVX NSCLC, in the experiment with SK-OV-3 ovarian and in the experiment with NCI-H23 lung was more than 100 µM each time.

With `Cc1cc(C#N)c(Nc2c(C)cccc2[N+](=O)[O-])s1`, the TGI is 84.9 µM in the experiment with SF-268 CNS; more than 100 µM with U251 CNS; 55 µM with CCRF-CEM leukemia; more than 100 µM with SN12C renal; 68.3 µM in the experiment with HOP-92 NSCLC; more than 100 µM in the experiment with EKVX NSCLC. The TGI with SK-OV-3 ovarian and with NCI-H23 lung was more than 100 µM each time.

Consider `Cc1ccc(C2=C(c3ccccc3)C(O)(c3ccc(C)cc3)C(c3ccccc3)=C2c2ccc(C)cc2)cc1`, for which the TGI in the experiment with SF-268 CNS, with U251 CNS, in the experiment with CCRF-CEM leukemia, in the experiment on SN12C renal, in the experiment on HOP-92 NSCLC and with EKVX NSCLC was more than 100 µM throughout. The values for the TGI with SK-OV-3 ovarian, in the experiment with LOX IMVI melanoma and in the experiment with NCI-H23 lung were more than 100 µM, more than 100 µM and 40.2 µM, respectively.

Take `c1ccc(C2N3CCCCC3[C@@H]3c4[nH]c5ccccc5c4CCN23)cc1` (stereo partly specified): the TGI in the experiment with SF-268 CNS was more than 100 µM; with U251 CNS it was more than 100 µM; in the experiment with CCRF-CEM leukemia, more than 100 µM; in the experiment with SN12C renal it was more than 100 µM; in the experiment with HT29 colon it was 33.5 µM; in the experiment with HOP-92 NSCLC, more than 100 µM. For the same compound, the TGI with EKVX NSCLC, in the experiment on SK-OV-3 ovarian and with NCI-H23 lung was more than 100 µM in each case.

For `Cc1c2cccc-2c(OCCO)cc2c1[nH]c1ccccc12`, the TGI with U251 CNS was 3.78 µM; in the experiment on CCRF-CEM leukemia, more than 29.6 µM; in the experiment on SN12C renal, 11.8 µM; with HT29 colon, 14.2 µM; in the experiment with HOP-92 NSCLC, more than 28.7 µM; with EKVX NSCLC, 5.18 µM. For the same compound, the TGI in the experiment with SK-OV-3 ovarian worked out at 14.4 µM; with LOX IMVI melanoma, 4.97 µM; in the experiment on NCI-H23 lung, 12.3 µM.

As to `C[C@]12CCC(=O)C=C1CC[C@@H]1C2CC[C@]2(C)Nc3c(ncn3-c3ccc(F)cc3)CC12` (stereo partly specified), the TGI is more than 100 µM in the experiment on SF-268 CNS; 95.9 µM in the experiment with U251 CNS; 82.6 µM in the experiment on CCRF-CEM leukemia; more than 100 µM with SN12C renal; more than 100 µM with HT29 colon; more than 100 µM in the experiment on HOP-92 NSCLC. Also, the TGI in the experiment on EKVX NSCLC, with SK-OV-3 ovarian and with NCI-H23 lung was more than 100 µM each time.

As to `CCOC(=O)c1cc(-c2ccc(Cl)cc2)c([N+](=O)[O-])n1C`, the TGI in the experiment on SF-268 CNS, with U251 CNS, in the experiment on CCRF-CEM leukemia, in the experiment on SN12C renal, with HT29 colon and in the experiment with HOP-92 NSCLC was more than 10 µM throughout. Further, the TGI in the experiment on EKVX NSCLC, in the experiment with SK-OV-3 ovarian and in the experiment with NCI-H23 lung was more than 10 µM in each case.

Consider `CN(C)/C=N/c1nc2ncn(CCOC(=O)c3ccccc3)c2c(=O)[nH]1`, for which the TGI with SF-268 CNS, with U251 CNS, in the experiment on CCRF-CEM leukemia, in the experiment with SN12C renal, in the experiment on HT29 colon and in the experiment with HOP-92 NSCLC was more than 100 µM each time. The TGI with EKVX NSCLC, in the experiment with SK-OV-3 ovarian and in the experiment on LOX IMVI melanoma was more than 100 µM in each case.

The record behind these values is PubChem BioAssay (NCI).
